Measurements: paper PMC12195707, “Evaluation of Antitumoral Activity in a 3D Cell Model of a Src Inhibitor Prodrug for Glioblastoma Treatment” (Pharmaceutics, 2025)
Values joined by “and” are separate entries in the source; they are usually repeats but may differ in a detail not shown here. Equal entries are not always repeated.

What was measured:
in vitro = conditions: PAMPA, pH 7.4
Description: After being first dissolved in DMSO, the compounds were diluted 1:1 v/v using phosphate buffer (PBS 10 mM, pH 7.4). […] The gastrointestinal (GI) and blood–brain barrier (BBB) phospholipidic bilayers were mimicked by covering each well of the filter plate with either a 10%w/v CHCl3/dodecane brain polar lipid solution or a 1%w/v L-α-phosphatidylcholine solution (PC) in dodecane. After placing a DMSO/PBS 1:1v/v combination solution in the acceptor plate, the sandwich was gently shaken and incubated at room temperature for four hours. Samples were collected from the upper and bottom plates at the end time point, and the LC-UV/MS method was used for analysis. As previously reported, the apparent permeability (Papp cm/s × 10^−6) was quantified.

[1] = Stability/release in cell culture medium DMEM (10% FBS); type: in vitro ADME; conditions: 37 °C; for half-life: bovine, DMEM plus 10% FBS (cell culture medium), read-out: Half-life t1/2 (converted)
[2] = system: U251 3D-bioprinted structures; assay: Viability assay in 3D-bioprinted U251 cell model (PrestoBlue); type: cell-based; conditions: Homo sapiens, U-251, 72 h, bioprinted U251 3D model
Description: (§1) A solution of 2% alginate and 8% gelatin (bio-ink) made up the hydrogel utilized for bioprinting. After 15 min of UV light exposure, the powders were dissolved in sterile DPBS in a magnetic stirrer set at 50 °C with laminar flow. After being made, bioink was put in sterile syringes and kept at 4 °C until it was needed. Bioink had been equilibrated at 37 °C prior to the bioprinting process. After that, 2.7 mL of bioink was added to 20 × 10^6 cells that had been resuspended in 300 µL of growth media. Lastly, a disposable cartridge containing a cell/hydrogel suspension was equilibrated in a temperature-controlled printhead for 30 min at 29 °C. The BIO-X bioprinter (Cellink, Gothenburg, Sweden) was used to print in a 12-well plate at a speed of 5 mm/s and a dispensing pressure of 50 kPa, while the temperature was adjusted to 18 °C. Before adding culture media, three-dimensional constructs were crosslinked using CaCl2 for ten minutes and BaCl2 for three minutes. After 8 days, 3D structures, after evaluating cell viability, were treated for 72 h with SI306 and SI306-PD2 at selected concentrations and in different conditions: in complete DMEM high-glucose growth medium and DMEM-high glucose growth medium without FBS (w/o). Fiji ImageJ software (version 2.16.0/1.54p, https://imagej.net/software/fiji/downloads, accessed on 20 May 2025) was used to perform measurements of 3D models’ diameters on images acquired using phase contrast microscopy. A hemocytometer was used to set a scale for normalized measures and to convert real optic distance in pixels. At least five different optical fields were acquired, and the diameter was calculated for at least 100 different cell aggregates in each experimental point.
For the treatment of 2D cultures, U87 and U251 cell lines were initially seeded at a density of 2.5 × 10^4 cells/mL in a 24 multiwell with a complete DMEM high-glucose growth medium. […] Cell viability in 2D and 3D models was assessed using the cell-permeable resazurin-based solution PrestoBlue (Thermo Fisher, Waltham, MA, USA). After incubating the cells in a 1:10 ratio with the colorimetric reagent for two hours in the dark, the spectrophotometer readings at 570 and 600 nm were utilized as a relative indicator for cell viability.
Data were imported into Excel or GraphPad Prism software (version 6.01) and elaborated as the mean ± standard deviation (SD) of at least three independent experiments. […] The p value of the log-dose vs. response was calculated with a two-tailed Mann–Whitney test for unpaired data. The statistical significance between two series of measures, including stability and PAMPA (both GI and BBB) experiments, was calculated with the parametric Student t test, considering a significant p value lower than 0.05.

CAS-1 GBM cells = system: CAS-1 GBM cells; design: method as in PMID 12564978; conditions: CAS-1 cells; cited from earlier work
[3] = Stability/release in human plasma; conditions: for Stability (% unmodified compound): 37 °C; for half-life: human, pH 7.4
U87 GBM cells = system: U87 GBM cells; design: method as in PMID 12564978; conditions: cited from earlier work
U251 spheroids = assay: Diameter of U251 spheroids in bioprinted scaffold; type: cell-based, human; conditions: 10 µM, 72 h, FBS-free DMEM
Description: as §1

[4] = system: U251 glioblastoma cell line; assay: 2D cell viability assay (PrestoBlue), U251; type: cell-based; conditions: Homo sapiens, U-251, 72 h, U251 2D culture
Description: The human glioblastoma cell line U87 MG (U87) was originally isolated from a patient with a malignant glioma (ECACC). The human glioblastoma cell line U251 MG (U251) was derived from a patient with a malignant glioblastoma (ECACC). DMEM high-glucose growth medium (Euroclone, Milan, Italy), supplemented with 10% FBS (Euroclone), 200 mM L-glutamine (Euroclone), 100 IU/mL penicillin, and 100 µg/mL streptomycin (Euroclone) comprised the culture medium used for cell propagation at a controlled temperature and atmosphere, at 37 °C, […], and 5% CO2. Cell lines underwent regular testing for mycoplasma using the PCR method and identity verification was performed using DNA profiling.
For the treatment of 2D cultures, U87 and U251 cell lines were initially seeded at a density of 2.5 × 10^4 cells/mL in a 24 multiwell with a complete DMEM high-glucose growth medium. The viability test was started 24 h after cell plating and performed for 72 h. According to the experimental plan, the tests were performed in the presence of a complete DMEM high-glucose growth medium or, to avoid the serum-dependent degradation of prodrug, in an FBS-free DMEM high-glucose growth medium that was supplemented with 200 mM L-glutamine, 100 IU/mL penicillin, and 100 µg/mL streptomycin. Cell viability in 2D and 3D models was assessed using the cell-permeable resazurin-based solution PrestoBlue (Thermo Fisher, Waltham, MA, USA). After incubating the cells in a 1:10 ratio with the colorimetric reagent for two hours in the dark, the spectrophotometer readings at 570 and 600 nm were utilized as a relative indicator for cell viability.
Data were imported into Excel or GraphPad Prism software (version 6.01) and elaborated as the mean ± standard deviation (SD) of at least three independent experiments. The calculation of IC50 values with 95% confidence intervals was performed in GraphPad Prism software using a parameter nonlinear fit of the log-dose vs. response elaboration of data. The p value of the log-dose vs. response was calculated with a two-tailed Mann–Whitney test for unpaired data. The statistical significance between two series of measures, including stability and PAMPA (both GI and BBB) experiments, was calculated with the parametric Student t test, considering a significant p value lower than 0.05.

U87MG xenograft = system: U87MG xenograft; design: method as in PMID 28650650; conditions: nude mice, in combination with radiotherapy; cited from earlier work
Src = biological target: Src; design: method as in PMID 28650650; conditions: cited from earlier work

Row | SMILES | Papp at 4 h (in vitro) [×10⁻⁶ cm/s] | Stability (% unmodified compound) ([1]; time 0 h) [%] | Stability (% unmodified compound) ([1]; time 0.083 h) [%] | Stability (% unmodified compound) ([1]; time 0.25 h) [%] | Stability (% unmodified compound) ([1]; time 0.5 h) [%] | Stability (% unmodified compound) ([1]; time 1 h) | Stability (% unmodified compound) ([1]; time 2 h) [%] | Stability (% unmodified compound) ([1]; time 4 h) [%] | Stability (% unmodified compound) ([1]; time 24 h) | half-life [1] [h] | IC50 ([2]; 10% FBS-DMEM) [µM] | IC50 ([2]; FBS-free DMEM (w/o)) [µM] | Stability (% unmodified compound) ([3]; time 0 h) [%] | Stability (% unmodified compound) ([3]; time 0.083 h) [%] | Stability (% unmodified compound) ([3]; time 0.25 h) [%] | Stability (% unmodified compound) ([3]; time 0.5 h) [%] | Stability (% unmodified compound) ([3]; time 2 h) [%] | Stability (% unmodified compound) ([3]; time 4 h) [%] | Stability (% unmodified compound) ([3]; time 6 h) [%] | half-life [3] [h] | other results
1 | O=C(OCCOCCO)N(c1cccc(Br)c1)c1nc(SCCN2CCOCC2)nc2c1cnn2CC(Cl)c1ccccc1 (stereo not drawn) [SI306-PD2, 2-(2-Hydroxyethoxy)ethyl (3-Bromophenyl)(1-(2-chloro-2-phenylethyl)-6-((2-morpholinoethyl)thio)-1H-pyrazolo[3,4-d]pyrimidin-4-yl)carbamate] | 19.5 ± 0.46 | 100.02 ± 0.80 | 100.22 ± 0.10 | 103.59 ± 2.97 | 98.01 ± 3.40 | 91.48% and 91.48 ± 0.86% | 85.45 ± 3.20 | 81.41 ± 3.94 | 40.07% and 40.07 ± 1.70% | 18.1 | 10 | 5.11 | 101.03 ± 1.58 | 90.12 ± 2.45 | 89.41 ± 2.37 | 89.57 ± 1.82 | 88.55 ± 1.18 | 71.86 ± 1.03 | 70.80 ± 3.25 | 10.9 | Activity in GBM cells (CAS-1 GBM cells): active; Activity in GBM cells (U87 GBM cells): active; Mean diameter of U251 spheroids vs. control (U251 spheroids): significant difference in the mean diameter of the treated U251 spheroids with respect to the control; Spheroid diameter vs. SI306-treated cells (U251 spheroids): significant reduction in spheroid diameter with respect to SI306-treated cells; IC50 ([4]; 10% FBS-DMEM): 1.29 µM; IC50 ([4]; FBS-free DMEM (w/o)): 0.09 µM
2 | ClC(Cn1ncc2c(Nc3cccc(Br)c3)nc(SCCN3CCOCC3)nc21)c1ccccc1 (stereo not drawn) [SI306, N-(3-bromophenyl)-1-(2-chloro-2-phenylethyl)-6-((2-morpholinoethyl)thio)-1H-pyrazolo[3,4-d]pyrimidin-4-amine] | 8.44 ± 1.03 | 100.11 ± 0.91 | 101.97 ± 2.32 | 103.96 ± 1.68 | 99.17 ± 1.10 | 98.52 ± 3.69% | 98.64 ± 1.79 | 93.56 ± 1.79 | 87.39% and 87.39 ± 0.41 % | > 100 | 14.3 | 11.7 | 100.50 ± 2.32 | 96.64 ± 2.74 | 97.99 ± 2.48 | 98.95 ± 1.18 | 99.92 ± 0.61 | 95.72 ± 0.76 | 95.54 ± 1.74 | > 100 | Stability (% unmodified compound) ([1]; time 6 h): 92.30 ± 0.84 %; U87MG xenograft growth (U87MG xenograft): strongly arrested U87MG xenograft growth; Stability (% unmodified compound) ([3]; time 1 h): 99.48 ± 1.70%; Stability (% unmodified compound) ([3]; time 24 h): 93.12% and 93.12 ± 1.70 %; Mean diameter of U251 spheroids vs. control (U251 spheroids): significant difference in the mean diameter of the treated U251 spheroids with respect to the control; Ki (Src): 0.13 µM; IC50 ([4]; 10% FBS-DMEM): 2.62 µM; IC50 ([4]; FBS-free DMEM (w/o)): 0.23 µM
